In patent US20130288364A1, “ENGINEERED KINETOCHORES AND USES THEREOF” (Whitehead Institute for Biomedical Research, priority 2010, published 2013):

Tested on: U2OS-LacO cells
Experiment: Interaction of LacI foci with spindle microtubules (foci shape)
Type: cell-based, human
Details: 2 μM
Excerpt: We next sought to test the interaction of these foci with spindle microtubules. […] This deformation of the LacI foci could represent microtubules binding the structure to opposite spindle poles. In such a situation, tension across the region would result in a change in the shape of the chromatin. Consistent with microtubule interactions with the foci, the deformed shape of the GFP-CENP-T-ΔC-LacI focus was dependent on microtubules, as nocodazole treatment relaxed this to a circular morphology, with an average length to width ration of 1.15 (FIG. 6B). See also FIG. 8. Deformation of the GFP-CENP-T-ΔC-LacI focus was exacerbated by treatment with the Aurora B inhibitor ZM447439, which has been proposed to regulate both kinetochore-microtubule attachments (Cheeseman and Desai, 2008) and chromatinstructure (Lipp et al., 2007).
Immunofluorescence in human cells was conducted as described previously (Kline et al., 2006). […]

## COc1cc2c(Nc3ccc(NC(=O)c4ccccc4)cc3)ncnc2cc1OCCCN1CCOCC1 [ZM447439]
  effect on deformation of the GFP-CENP-T-ΔC-LacI focus: exacerbated
